Data from patent US20250122182A1 (Isosterix, Inc., priority 2023, published 2025).

Biological target: Recombinant KAT6A/MOZ (488-778) protein (Homo sapiens (Human), UniProt Q92794)
Assay: KAT6A AlphaLISA Inhibition Screening Assay
Assay type: biochemical
Settings: for inhibition at 1 µM: read-out: Average Kat6A % inhibition @ 1 μM; for inhibition at 1 µM / Average Kat6A % inhibition @ 1 μM: 1 μM test compound; for inhibition at 10 µM: read-out: Average Kat6A % inhibition @ 10 μM; for inhibition at 10 µM / Average Kat6A % inhibition @ 10 μM: 10 μM test compound
In short: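 AlphaLISA read-out with anti-acetyl-lysine acceptor and streptavidin donor beads, % inhibition relative to vehicle. Reaction: biotinylated histone H3 1-21 (200 nM) and acetyl-CoA (400 nM) with KAT6A 488-778 (25 nM), 120 min at room temperature, pH 8.0, 330 nM TSA, after 60 or 10 min enzyme–compound pre-incubation; 10-point 3-fold series from 10 μM.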

Sequence of Recombinant KAT6A/MOZ (488-778) protein (Q92794 488-778): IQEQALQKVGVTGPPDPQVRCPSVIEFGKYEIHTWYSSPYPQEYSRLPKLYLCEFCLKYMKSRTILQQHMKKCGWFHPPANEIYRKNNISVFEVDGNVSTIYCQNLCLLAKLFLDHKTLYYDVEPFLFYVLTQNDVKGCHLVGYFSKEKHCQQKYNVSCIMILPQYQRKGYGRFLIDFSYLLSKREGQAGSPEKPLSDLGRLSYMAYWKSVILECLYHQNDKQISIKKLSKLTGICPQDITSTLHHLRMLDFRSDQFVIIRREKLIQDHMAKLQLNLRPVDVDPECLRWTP

| SMILES | inhibition at 1 µM [%] | inhibition at 10 µM [%] | Average Kat6A % inhibition @ 1 μM [%] | Average Kat6A % inhibition @ 10 μM [%] |
| --- | --- | --- | --- | --- |
| C=C(F)C(=O)NCc1cnn(Cc2cc(OC)c3c(NS(=O)(=O)c4cc(CC)ccc4OCc4ncon4)noc3c2)c1 [Syn. Ex. 73, N-((1-((3-((2-((1,2,4-oxadiazol-3-yl)methoxy)-5-ethylphenyl)sulfonamido)-4-methoxybenzo[d]isoxazol-6-yl)methyl)-1H-pyrazol-4-yl)methyl)-2-fluoroacrylamide] | 100 | 100 |  |  |
| CCc1ccc(OC)c(S(=O)(=O)Nc2noc3cc(Cn4cc(CNS(=O)(=O)CCOC)cn4)cc(OC)c23)c1 [Syn. Ex. 18, 5-ethyl-2-methoxy-N-(4-methoxy-6-((4-(((2-methoxyethyl)sulfonamido)methyl)-1H-pyrazol-1-yl)methyl)benzo[d]isoxazol-3-yl)benzenesulfonamide] | 97 | 98 |  |  |
| CCc1ccc(OC)c(S(=O)(=O)Nc2noc3cc(Oc4ncc(CN[S+]([O-])C(C)(C)C)o4)cc(OC)c23)c1 (stereo not drawn) [Syn. Ex. 98, N-(6-((5-(((tert-Butylsulfinyl)amino)methyl)oxazol-2-yl)oxy)-4-methoxybenzo[d]isoxazol-3-yl)-5-ethyl-2-methoxybenzenesulfonamide] | 78 | 92 |  |  |
| CCC(=O)N1Cc2cnn(Cc3cc(OC)c4c(NS(=O)(=O)c5ccccc5OC)noc4c3)c2C1 [Syn. Ex. 3, 2-methoxy-N-(4-methoxy-6-((5-propionyl-5,6-dihydropyrrolo[3,4-c]pyrazol-1(4H)-yl)methyl)benzo[d]isoxazol-3-yl)benzenesulfonamide] | 100 | 100 |  |  |
| C=C(F)C(=O)NCc1cnn(Cc2cc(OC)c3c(NS(=O)(=O)c4cc(CC)ccc4OCCN)noc3c2)c1 [Syn. Ex. 76, N-((1-((3-((2-(2-aminoethoxy)-5-ethylphenyl)sulfonamido)-4-methoxybenzo[d]isoxazol-6-yl)methyl)-1H-pyrazol-4-yl)methyl)-2-fluoroacrylamide] | 74 | 96 |  |  |
| C=C(F)C(=O)NCc1cnc(Oc2cc(OC)c3c(NS(=O)(=O)c4cc(CC)ccc4OC)noc3c2)o1 [Syn. Ex. 99, N-((2-((3-((5-ethyl-2-methoxyphenyl)sulfonamido)-4-methoxybenzo[d]isoxazol-6-yl)oxy)oxazol-5-yl)methyl)-2-fluoroacrylamide] | 91 | 100 |  |  |
| C#CC(=O)N1Cc2cnn(Cc3cc(OC)c4c(NS(=O)(=O)c5cc(OC)ccc5OC)noc4c3)c2C1 [Syn. Ex. 4, 2,5-dimethoxy-N-(4-methoxy-6-((5-propioloyl-5,6-dihydropyrrolo[3,4-c]pyrazol-1(4H)-yl)methyl)benzo[d]isoxazol-3-yl)benzenesulfonamide] | 100 | 100 |  |  |
| CCc1ccc(OC)c(S(=O)(=O)Nc2noc3cc(Cn4cc(CNC(=O)OC)cn4)cc(OC(F)F)c23)c1 [Syn. Ex. 63, methyl ((1-((4-(difluoromethoxy)-3-((5-ethyl-2-methoxyphenyl)sulfonamido)benzo[d]isoxazol-6-yl)methyl)-1H-pyrazol 4yl)methyl)carbamate] | 95 | 96 |  |  |
| CCc1ccc(OC)c(S(=O)(=O)Nc2noc3cc(Cn4cc(CNC(=O)OCCN)cn4)cc(OC)c23)c1 [Syn. Ex. 32, 2-aminoethyl ((1-((3-((5-ethyl-2-methoxyphenyl)sulfonamido)-4-methoxybenzo[d]isoxazol-6-yl)methyl)-1H-pyrazol-4-yl)methyl) carbamate] |  |  | 75 | 97 |
| C=C(F)C(=O)NCc1cnn(Cc2cc3onc(NS(=O)(=O)c4ccccc4OC)c3cc2OC)c1 [Syn. Ex. 146, 2-fluoro-N-((1-((5-methoxy-3-((2-methoxyphenyl)sulfonamido)benzo[d]isoxazol-6-yl)methyl)-1H-pyrazol-4-yl)methyl) acrylamide] |  |  | 99 | 101 |
| C#CC(=O)N1CCc2cnn(Cc3cc(OC)c4c(NS(=O)(=O)c5cc(CC)ccc5OC)noc4c3)c2CC1 [Syn. Ex. 9, 5-ethyl-2-methoxy-N-(4-methoxy-6-((6-propioloyl-5,6,7,8-tetrahydropyrazolo[3,4-d]azepin-1(4H)-yl)methyl)benzo[d]isoxazol-3-yl)benzenesulfonamide] | 61 | 100 |  |  |
| C=C(F)C(=O)NCc1cnn(Cc2cc(OC)c3c(NS(=O)(=O)c4cc(CC)ccc4OCc4ccccc4)noc3c2)c1 [Syn. Ex. 92, N-((1-((3-((2-(benzyloxy)-5-ethylphenyl)sulfonamido)-4-methoxybenzo[d]isoxazol-6-yl)methyl)-1H-pyrazol-4-yl)methyl)-2-fluoroacrylamide] | 100 | 100 |  |  |
| C#CC(=O)Nc1ccc(Oc2cc(OC)c3c(NS(=O)(=O)c4cc(CC)ccc4OC)noc3c2)nc1 [Syn. Ex. 108, N-(6-((3-((5-ethyl-2-methoxyphenyl)sulfonamido)-4-methoxybenzo[d]isoxazol-6-yl)oxy)pyridin-3-yl)propiolamide] | 99 | 100 |  |  |

Further lines, results first:

| inhibition at 1 µM [%] | inhibition at 10 µM [%] | Average Kat6A % inhibition @ 1 μM [%] | Average Kat6A % inhibition @ 10 μM [%] | SMILES |
| --- | --- | --- | --- | --- |
|  |  | 102 | 102 | COC(=O)NCc1cnn(Cc2cc(OC)c3c(NS(=O)(=O)c4cccc5cc(C)cnc45)noc3c2)c1 [Syn. Ex. 129, methyl ((1-((4-methoxy-3-((3-methylquinoline)-8-sulfonamido)benzo[d]isoxazol-6-yl)methyl)-1H-pyrazol-4-yl)methyl)carbamate] |
|  |  | 99 | 100 | COC(=O)NCc1cnn(Cc2cc(OC)c3c(NS(=O)(=O)c4cccc5c(C)ccnc45)noc3c2)c1 [Syn. Ex. 131, methyl ((1-((4-methoxy-3-((4-methylquinoline)-8-sulfonamido)benzo[d]isoxazol-6-yl)methyl)-1H-pyrazol-4-yl)methyl)carbamate] |
|  |  | 101 | 100 | COC(=O)NCc1cnn(Cc2cc(OC)c3c(NS(=O)(=O)c4cc5c(cc4OC)CCO5)noc3c2)c1 [Syn. Ex. 126, methyl ((1-((4-methoxy-3-((5-methoxy-2,3-dihydrobenzofuran)-6-sulfonamido)benzo[d]isoxazol-6-yl)methyl)-1H-pyrazol-4-yl)methyl)carbamate] |
|  |  | 119 | 114 | COC(=O)NCc1cnn(Cc2cc(OC)c3c(NS(=O)(=O)c4cc5c(cc4OC)CCCC5)noc3c2)c1 [Syn. Ex. 139, methyl ((1-((4-methoxy-3-((3-methoxy-5,6,7,8-tetrahydronaphthalene)-2-sulfonamido)benzo[d]isoxazol-6-yl)methyl)-1H-pyrazol-4-yl)methyl)carbamate] |
| 101 | 100 |  |  | CCc1ccc(OCc2nnco2)c(S(=O)(=O)Nc2noc3cc(Cn4cc(CNC(=O)OC)cn4)cc(OC)c23)c1 [Syn. Ex. 127, methyl ((1-((3-((2-((1,3,4-oxadiazol-2-yl)methoxy)-5-ethylphenyl)sulfonamido)-4-methoxybenzo[d]isoxazol-6-yl)methyl)-1H-pyrazol-4-yl)methyl)carbamate] |
| 100 | 101 |  |  | CCc1ccc(S(=O)(=O)Nc2noc3cc(Cn4cc(CNC(=O)OC)cn4)cc(OC)c23)c(OC)c1 [Syn. Ex. 125, methyl ((1-((3-((4-ethyl-2-methoxyphenyl)sulfonamido)-4-methoxybenzo[d]isoxazol-6-yl)methyl)-1H-pyrazol-4-yl)methyl)carbamate] |
